{"source": "patent US20250090528A1", "about": "“USE OF COMPLEMENT FACTOR D INHIBITOR FOR TREATMENT OF LUPUS NEPHRITIS AND IMMUNOGLOBULIN A NEPHROPATHY” (Alexion Pharmaceuticals, Inc., priority 2021, published 2025)", "key": {"[1]": {"experiment": "Single-ascending and multiple-ascending dose clinical PK studies in healthy volunteers", "format": "in vivo, human", "excerpt": "Clinical pharmacokinetics (PK) and PD data have been generated for ALXN2050 in single-ascending and multiple-ascending dose studies in healthy volunteers."}, "[2]": {"experiment": "Multiple ascending dose study: safety and safety margin versus NOAEL exposures from nonclinical chronic toxicology studies", "format": "in vivo, human", "conditions": "120 and 200 mg BID", "description": "(§1) In addition, both dosage regimens provided complete (>90%) and sustained inhibition of AP activity throughout the 12-hour dosing interval. Therefore, 120 mg BID is selected as the minimum therapeutic dosage."}, "[3]": {"test_system": "alternative pathway (AP) activity", "experiment": "PD activity: AP inhibition in the AP Wieslab assay after multiple-dose administration in healthy participants", "format": "in vivo, human", "description": "The 120 mg BID dosing regimen provided sustained AP inhibition (AP activity <10%) in healthy participants whose ALXN2050 concentrations achieved the 90% inhibitory concentration (IC90) threshold through the 12-hour dosing periods. Therefore, 120 mg BID is selected as the minimum therapeutic dose. […] Therefore, the 180 mg BID is selected as the likely therapeutic dose.\nas §1"}, "[4]": {"test_system": "lupus nephritis", "conditions": "LN patients, cited from earlier work"}, "[5]": {"conditions": "NOAEL from nonclinical chronic toxicology studies"}}, "note": "Read-outs that look alike come from different tables or passages of the source."}
{"compound": "CC(=O)c1nn(CC(=O)N2[C@H](C(=O)Nc3nc(Br)ccc3C)C[C@@]3(C)C[C@@H]23)c2ccc(-c3cnc(C)nc3)cc12", "note": "[ALXN2050]", "values": [{"measurement": "intersubject variability in PK", "setting": "[1]", "result": "Large intersubject variability"}, {"measurement": "increase in systemic exposure with dose", "setting": "[1]; multiple-dose administration at steady state (Days 7 and 14), 40 mg BID to 200 mg BID", "result": "greater than dose-proportional increase"}, {"measurement": "increase in systemic exposure with dose", "setting": "[1]; single-dose administration", "result": "dose-proportional increase"}, {"measurement": "safety and efficacy of dose regimens", "setting": "[2]; multiple ascending dose study", "result": "safe and effective"}, {"measurement": "safety margin in AUC0-24 versus exposures at NOAEL", "setting": "[2]; [5]", "result": "≥ 10", "unit": "fold"}, {"measurement": "safety margin in maximum plasma concentration (Cmax) versus exposures at NOAEL", "setting": "[2]; [5]", "result": "≥ 10", "unit": "fold"}, {"measurement": "inhibition of AP activity (complete and sustained)", "setting": "[3]; 120 and 200 mg BID, throughout the 12-hour dosing interval", "result": "> 90", "unit": "%"}, {"measurement": "activity at 120 mg", "setting": "[3]; Homo sapiens, 120 mg BID, participants whose concentrations achieved the IC90 threshold through the 12-hour dosing periods, read-out: AP activity (sustained AP inhibition)", "result": "< 10", "unit": "%"}, {"measurement": "PD activity (AP inhibition in the AP Wieslab assay)", "setting": "[3]; multiple-dose 40 mg BID to 200 mg BID, healthy participants", "result": "increased with increasing dose"}]}
{"compound": "C=C/C=C/C[C@@H](C)[C@@H](O)[C@H]1C(=O)N[C@@H](CC)C(=O)N(C)CC(=O)N(C)[C@@H](CC(C)C)C(=O)N[C@@H](C(C)C)C(=O)N(C)[C@@H](CC(C)C)C(=O)N[C@@H](C)C(=O)N[C@H](C)C(=O)N(C)[C@@H](CC(C)C)C(=O)N(C)[C@@H](CC(C)C)C(=O)N(C)[C@@H](C(C)C)C(=O)N1C", "note": "[voclosporin]", "values": [{"measurement": "CRR", "setting": "[4]; at one year, placebo 22.5%", "result": 40.8, "unit": "%"}]}
{"compound": "belimumab: approved in the US for the treatment of LN", "values": [{"measurement": "CRR", "setting": "[4]; at two years, placebo 20.0%", "result": 30.0, "unit": "%"}]}
